Measured values taken from US10227323B2, “Glucosylceramide synthase inhibitors for the treatment of diseases” (BIOMARIN PHARMACEUTICAL INC., priority 2013, dated 2019).

biological target: T1, GCS (Canis lupus familiaris, UniProt A0A8I3MXG6); test: Assay 1: GCS Enzymatic Assay (MDCK cell lysate, C6-NBD-Ceramide, LC/MS); assay type: biochemical, canine; conditions: Table 1; MDCK cell lysate; read-out: IC50 (nM) generated from Assay 1
T1 sequence (A0A8I3MXG6 1-394): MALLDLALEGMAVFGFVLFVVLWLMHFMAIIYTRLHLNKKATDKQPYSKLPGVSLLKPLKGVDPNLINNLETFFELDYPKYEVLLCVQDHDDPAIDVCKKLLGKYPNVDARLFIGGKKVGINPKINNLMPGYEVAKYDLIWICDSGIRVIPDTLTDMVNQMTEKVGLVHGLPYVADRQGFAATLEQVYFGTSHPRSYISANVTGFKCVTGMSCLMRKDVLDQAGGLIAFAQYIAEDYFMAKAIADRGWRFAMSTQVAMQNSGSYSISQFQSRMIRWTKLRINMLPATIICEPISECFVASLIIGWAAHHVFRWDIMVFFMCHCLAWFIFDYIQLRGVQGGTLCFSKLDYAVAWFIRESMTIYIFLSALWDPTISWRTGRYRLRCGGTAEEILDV
Procedure, shortened: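 LC/MS/MS measurement of glucosylceramide and NBD-ceramide after a 1 h, 37 °C reaction with 100 μM UDP-glucose and 10 μM C6-NBD-ceramide gave IC50s or percent inhibition.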

| Compound | IC50 |
| --- | --- |
| O=C(N[C@H](CN1CCCC1)[C@H](O)c1cc(Cl)c2c(c1)OCCO2)C(F)(F)c1cc2cc(Cl)ccc2o1 [Compound 65, N-((1R,2R)-1-(8-chloro-2,3-dihydrobenzo[b][1,4]dioxin-6-yl)-1-hydroxy-3-(pyrrolidin-1-yl)propan-2-yl)-2-(5-chlorobenzofuran-2-yl)-2,2-difluoroacetamide] | < 50 nM |
| O=C(N[C@H](CN1CCCC1)[C@H](O)c1ccc2c(c1)OCCO2)C(F)(F)c1cc2cc(F)ccc2o1 [Compound 24, N-((1R,2R)-1-(2,3-dihydrobenzo[b][1,4]dioxin-6-yl)-1-hydroxy-3-(pyrrolidin-1-yl)propan-2-yl)-2,2-difluoro-2-(5-fluorobenzofuran-2-yl)acetamide] | < 50 nM |
| C[C@@H]1CCCN1C[C@@H](NC(=O)C(F)(F)c1cc2cc(Cl)ccc2o1)[C@H](O)c1ccc2c(c1)OCCO2 [Compound 39, 2-(5-chlorobenzofuran-2-yl)-N-((1R,2R)-1-(2,3-dihydrobenzo[b][1,4]dioxin-6-yl)-1-hydroxy-3-((1R)-2-methylpyrrolidin-1-yl)propan-2-yl)-2,2-difluoroacetamide] | < 50 nM |

same assay, conditions: Table 1; values marked *; MDCK cell lysate

| Compound | % inhibition generated from Assay 1 |
| --- | --- |
| Cn1c(C(F)(F)C(=O)N[C@H](CN2CCCC2)[C@H](O)c2ccc3c(c2)OCCO3)nc2cc(Cl)ccc21 [Compound 10, 2-(5-chloro-1-methyl-1H-benzo[d]imidazol-2-yl)-N-((1R,2R)-1-(2,3-dihydrobenzo[b][1,4]dioxin-6-yl)-1-hydroxy-3-(pyrrolidin-1-yl)propan-2-yl)-2,2-difluoroacetamide] | B* (the compound had a % inhibition of greater than or equal to about 3% but less than about 50%) |
| COc1ccc([C@@H](O)[C@@H](CN2CCCC2)NC(=O)C(F)(F)C2Cc3ccccc3C2)cc1F [Compound 5B, 2-(2,3-dihydro-1H-inden-2-yl)-2,2-difluoro-N-((1R,2R)-1-(3-fluoro-4-methoxyphenyl)-1-hydroxy-3-(pyrrolidin-1-yl)propan-2-yl)acetamide] | B* (the compound had a % inhibition of greater than or equal to about 3% but less than about 50%) |
| O=C(N[C@H](CN1CC[C@H](F)C1)[C@H](O)c1ccc2c(c1)OCCO2)C(F)(F)c1cc2cc(Cl)ccc2o1 [Compound 38, 2-(5-chlorobenzofuran-2-yl)-N-((1R,2R)-1-(2,3-dihydrobenzo[b][1,4]dioxin-6-yl)-3-((S)-3-fluoropyrrolidin-1-yl)-1-hydroxypropan-2-yl)-2,2-difluoroacetamide] | B* (the compound had a % inhibition of greater than or equal to about 3% but less than about 50%) |
| O=C(N[C@H](CN1CCCC1)[C@H](O)c1cc2c(cc1F)OCCO2)C(F)(F)c1cc2cc(Cl)ccc2o1 [Compound 33, 2-(5-chlorobenzofuran-2-yl)-2,2-difluoro-N-((1R,2R)-1-(7-fluoro-2,3-dihydrobenzo[b][1,4]dioxin-6-yl)-1-hydroxy-3-(pyrrolidin-1-yl)propan-2-yl)acetamide] | B* (the compound had a % inhibition of greater than or equal to about 3% but less than about 50%) |
| O=C(N[C@H](CN1CCCC1)[C@H](O)c1cc2cc(Cl)ccc2o1)C(F)(F)c1cc2cc(Cl)ccc2o1 [Compound 68, 2-(5-chlorobenzofuran-2-yl)-N-((1S,2R)-1-(5-chlorobenzofuran-2-yl)-1-hydroxy-3-(pyrrolidin-1-yl)propan-2-yl)-2,2-difluoroacetamide] | B* (the compound had a % inhibition of greater than or equal to about 3% but less than about 50%) |

same assay, conditions: Table 2; data without asterisk; read-out: IC50 (nM) generated from Assay 1

| Compound | IC50 |
| --- | --- |
| CC(C)n1ccc2ccc(C(=O)C(=O)N[C@H](CN3CCCC3)[C@H](O)c3ccc(OC4CC4)c(Cl)c3)cc21 [Example 332, N-((1R,2R)-1-(3-chloro-4-cyclopropoxyphenyl)-1-hydroxy-3-(pyrrolidin-1-yl)propan-2-yl)-2-(1-isopropyl-1H-indo1-6-yl)-2-oxoacetamide] | < 50 nM |
| O=C(N[C@H](CN1CCC1)[C@H](O)c1cc(F)c2c(c1)OCCO2)C(=O)c1ccc(-c2ccc(F)cc2)cc1 [Compound 150, N-((1R,2R)-3-(azetidin-1-yl)-1-(8-fluoro-2,3-dihydrobenzo[b][1,4]dioxin-6-yl)-1-hydroxypropan-2-yl)-2-(4′-fluoro-[1,1′-biphenyl]-4-yl)-2-oxoacetamide] | < 50 nM |
| O=C(N[C@H](CN1CCCC1)[C@H](O)c1ccc(OC2CCOCC2)c(Cl)c1)C(=O)c1ccc(-c2ccc(F)cc2)cc1 [Compound 152, N-((1R,2R)-1-(3-chloro-4-((tetrahydro-2H-pyran-4-yl)oxy)phenyl)-1-hydroxy-3-(pyrrolidin-1-yl)propan-2-yl)-2-(4′-fluoro-[1,1′-biphenyl]-4-yl)-2-oxoacetamide] | < 50 nM |
| O=C(N[C@H](CN1CCCC1)[C@H](O)c1cc(F)c2c(c1)OCCO2)C(=O)c1ccc2cc(Cl)ccc2c1 [Compound 151, 2-(6-chloronaphthalen-2-yl)-N-((1R,2R)-1-(8-fluoro-2,3-dihydrobenzo[b][1,4]dioxin-6-yl)-1-hydroxy-3-(pyrrolidin-1-yl)propan-2-yl)-2-oxoacetamide] | < 50 nM |
| O=C(N[C@H](CN1CCCC1)[C@H](O)c1ccc(OC2CC2)c(Cl)c1)C(=O)c1cccc(Oc2ccc(F)cc2)c1 [Compound 249, N-((1R,2R)-1-(3-chloro-4-cyclopropoxyphenyl)-1-hydroxy-3-(pyrrolidin-1-yl)propan-2-yl)-2-(3-(4-fluorophenoxy)phenyl)-2-oxoacetamide] | < 50 nM |
| CC(C)(O)COc1ccc([C@@H](O)[C@@H](CN2CCCC2)NC(=O)C(=O)c2ccc(-c3ccc(F)cc3)cc2)cc1Cl [Compound 194, N-((1R,2R)-1-(3-chloro-4-(2-hydroxy-2-methylpropoxy)phenyl)-1-hydroxy-3-(pyrrolidin-1-yl)propan-2-yl)-2-(4′-fluoro-[1,1′-biphenyl]-4-yl)-2-oxoacetamide] | < 50 nM |
| O=C(N[C@H](CN1CCCC1)[C@H](O)c1ccc(OC2CC2)c(F)c1)C(=O)c1ccc(-c2ccc(F)cc2)cc1 [Compound 208, N-((1R,2R)-1-(4-cyclopropoxy-3-fluorophenyl)-1-hydroxy-3-(pyrrolidin-1-yl)propan-2-yl)-2-(4′-fluoro-[1,1′-biphenyl]-4-yl)-2-oxoacetamide] | < 50 nM |
| CC(C)n1cc2cc(C(=O)C(=O)N[C@H](CN3CCCC3)[C@H](O)c3ccc(OC4CC4)c(Cl)c3)ccc2n1 [Example 311, N-((1R,2R)-1-(3-chloro-4-cyclopropoxyphenyl)-1-hydroxy-3-(pyrrolidin-1-yl)propan-2-yl)-2-(2-isopropyl-2H-indazol-5-yl)-2-oxoacetamide] | < 50 nM |
| CC(C)Oc1ccc([C@@H](O)[C@@H](CN2CCCC2)NC(=O)C(F)(F)CCc2ccc3ccccc3c2)cn1 [Compound 107, 2,2-difluoro-N-((1R,2R)-1-hydroxy-1-(6-isopropoxypyridin-3-yl)-3-(pyrrolidin-1-yl)propan-2-yl)-4-(naphthalen-2-yl)butanamide] | < 50 nM |
| CC1(C)COc2c(F)cc([C@@H](O)[C@@H](CN3CCCC3)NC(=O)C(=O)c3ccc(-c4ccc(F)cc4)cc3)cc2O1 [Compound 362, N-((1R,2R)-1-(8-fluoro-3,3-dimethyl-2,3-dihydrobenzo[b][1,4]dioxin-6-yl)-1-hydroxy-3-(pyrrolidin-1-yl)propan-2-yl)-2-(4′-fluoro-[1,1′-biphenyl]-4-yl)-2-oxoacetamide] | < 50 nM |
| O=C(N[C@H](CN1CCC1)[C@H](O)c1ccc(OC2CC2)c(F)c1)C(=O)c1cc2ccc(Cl)cc2s1 [Compound 381, N-((1R,2R)-3-(azetidin-1-yl)-1-(4-cyclopropoxy-3-fluorophenyl)-1-hydroxypropan-2-yl)-2-(6-chlorobenzo[b]thiophen-2-yl)-2-oxoacetamide] | < 50 nM |
| O=C(N[C@H](CN1CCC1)[C@H](O)c1cc(F)c2c(c1)OCCO2)C(F)(F)c1ccc(-c2ccc(F)cc2)cc1 [Compound 157, N-((1R,2R)-3-(azetidin-1-yl)-1-(8-fluoro-2,3-dihydrobenzo[b][1,4]dioxin-6-yl)-1-hydroxypropan-2-yl)-2,2-difluoro-2-(4′-fluoro-[1,1′-biphenyl]-4-yl)acetamide] | < 50 nM |
| CC(C)n1ccc2cc(C(=O)C(=O)N[C@H](CN3CCCC3)[C@H](O)c3ccc(OC4CC4)c(Cl)c3)ccc21 [Example 324, N-((1R,2R)-1-(3-chloro-4-cyclopropoxyphenyl)-1-hydroxy-3-(pyrrolidin-1-yl)propan-2-yl)-2-(1-isopropyl-1H-indo1-5-yl)-2-oxoacetamide] | < 50 nM |
| Cc1cc(C(=O)C(=O)N[C@H](CN2CCCC2)[C@H](O)c2cc(F)c3c(c2)OCCO3)ccc1-c1ccc(F)cc1 [Example 299, N-((1R,2R)-1-(8-fluoro-2,3-dihydrobenzo[b][1,4]dioxin-6-yl)-1-hydroxy-3-(pyrrolidin-1-yl)propan-2-yl)-2-(4′-fluoro-2-methyl-[1,1′-biphenyl]-4-yl)-2-oxoacetamide] | < 50 nM |

same assay, conditions: Table 3; MDCK cell lysate; read-out: IC50 (nM) generated from Assay 1

| Compound | IC50 |
| --- | --- |
| O=C(N[C@H](CN1CCCC1)[C@H](O)c1cc(F)c2c(c1)OCCO2)C(F)(F)c1ccc(-c2ccc(Cl)s2)cc1 [Example 398, 2-(4-(5-chlorothiophen-2-yl)phenyl)-2,2-difluoro-N-((1R,2R)-1-(8-fluoro-2,3-dihydrobenzo[b][1,4]dioxin-6-yl)-1-hydroxy-3-(pyrrolidin-1-yl)propan-2-yl)acetamide] | < 50 nM |
